This is an account of results in patent US20140309244A1, “NOVEL MICROBIOCIDES” (SYNGENTA PARTICIPATIONS AG, priority 2010, published 2014).

By inhibition is commonly meant the share of the control response that was lost under treatment.

Molecules are shown by their SMILES. Where only a bound is given, the exact number is not on record here.

Test [1] has as its system Phaeosphaeria nodorum (Septoria nodorum). As to the kind of experiment: Phaeosphaeria nodorum (Septoria nodorum) / wheat / leaf disc preventative (glume blotch). It counts as in vivo. Conditions: Parastagonospora nodorum, foliar, wheat cv Kanzler leaf segments, inoculated 2 days after application, assessed 5-7 days after application, read-out: control of Phaeosphaeria nodorum (percent disease control compared to untreated).

The subject of test [2] is Glomerella lagenarium (Colletotrichum lagenarium). The test is described as follows: Glomerella lagenarium (Colletotrichum lagenarium) / liquid culture (anthracnose). It counts as cell-based. Conditions: Colletotrichum orbiculare, PDB potato dextrose broth, 96-well plate, 24° C., 3-4 days after application, read-out: control of Glomerella lagenarium (inhibition of growth, photometric).

The test system of test [3] is Mycosphaerella graminicola (Septoria tritici). As to the kind of experiment: Mycosphaerella graminicola (Septoria tritici) / liquid culture (Septoria blotch). The test is classed as cell-based. Conditions: Zymoseptoria tritici, PDB potato dextrose broth, 96-well plate, 24° C., 4-5 days after application, read-out: control of Mycosphaerella graminicola (inhibition of growth, photometric).

Test [4] relates to Botryotinia fuckeliana (Botrytis cinerea). The test is described as follows: Botryotinia fuckeliana (Botrytis cinerea) / liquid culture (gray mould). It counts as cell-based. Conditions: Vogels broth, 96-well plate, 24° C., 3-4 days after application, read-out: control of Botryotinia fuckeliana (inhibition of growth, photometric).
Test [5] has as its system Monographella nivalis (Microdochium nivale). The test is described as follows: Monographella nivalis (Microdochium nivale) / liquid culture (foot rot cereals). Conditions: PDB potato dextrose broth, 96-well plate, 24° C., 4-5 days after application, read-out: control of Monographella nivalis (inhibition of growth, photometric). The test is classed as cell-based. On the procedure: Monographella nivalis (Microdochium nivale)/Liquid Culture (Foot Rot Cereals): Conidia of the fungus from cryogenic storage were directly mixed into nutrient broth (PDB potato dextrose broth). After placing a DMSO solution of test compound into a 96-well microtiter plate at an application rate of 200 ppm, the nutrient broth containing the fungal spores was added. The test plates were incubated at 24° C. and the inhibition of growth was determined photometrically 4-5 days after application. […].103

In another test the test system is Pyrenophora teres. The test is described as follows: Pyrenophora teres / barley / leaf disc preventative (net blotch). It counts as in vivo. Conditions: foliar, barley cv Hasso leaf segments, inoculated two days after application, assessed 5-7 days after application, read-out: control of Pyrenophora teres (disease control compared to untreated).
Test [6] has as its system Mycosphaerella arachidis (Cercospora arachidicola). As to the kind of experiment: Mycosphaerella arachidis (Cercospora arachidicola) / liquid culture (early leaf spot). It counts as cell-based. Conditions: PDB potato dextrose broth, 96-well plate, 24° C., 4-5 days after application, read-out: control of Mycosphaerella arachidis (inhibition of growth, photometric).

Regarding `CO/N=C(\C)c1cccc(CCCON=C(C)c2ccnc(-c3cccc(C)n3)n2)n1` (single isomer, unassigned) [P.63A], the pest or weed control at 200 ppm in test [1] is at least 80%. The inhibition at 200 ppm in test [2] and in test [3] was at least 80% in each case.

Take `CO/N=C(\C)c1cccc(CCCON=C(C)c2ccnc(-c3cccc(C)n3)n2)n1` (single isomer, unassigned) [P.63B]: the inhibition at 200 ppm in test [4] was at least 80%.

On to `C=C(CCO/N=C(\C)c1cccc(C)n1)c1cccc(/C(C)=N/OC)n1` [P.05, (E)-1-(6-{1-methylene-3-[1-(6-methyl-pyridin-2-yl)-eth-(E)-ylideneaminooxy]-propyl}-pyridin-2-yl)-ethanone O-methyl-oxime], for which the inhibition at 200 ppm in test [3] and in test [5] was at least 80% throughout.

As to `C/C(=N\OCCCc1cccc(/C(C)=N/O)n1)c1cccc(C)n1` [P.11], the inhibition at 200 ppm in test [4] and in test [3] was at least 80% each time.

`CO/N=C(\C)c1cccc(CCCO/N=C(\C)c2cccc(-c3cc(C)ccc3C)n2)n1` [P.15]: the pest or weed control at 200 ppm in the test on Pyrenophora teres is at least 80%. Moreover, the inhibition at 200 ppm in test [4], in test [6] and in test [3] was at least 80% in each case.

With `CO/N=C(\C)c1cccc(CCCO/N=C(\C)c2cccc(-c3ccccc3O)n2)n1` [P.16], in test [3], the inhibition at 200 ppm is at least 80%.

For `CO/N=C(\C)c1cccc(CCCO/N=C(\C)c2ccccn2)n1` [P.17], the inhibition at 200 ppm in test [4] is at least 80%.

`C#Cc1cccc(/C(C)=N/OCCCc2cccc(/C(C)=N/OC)n2)n1` [P.18]: the inhibition at 200 ppm in test [4] and in test [6] was at least 80% in each case.

`CO/N=C(\C)c1cccc(CCCO/N=C(\C)c2cccc(C3CC3)n2)n1` [P.20]: the pest or weed control at 200 ppm (in test [1]; in the test with Pyrenophora teres) was at least 80% in each case. In addition, the inhibition at 200 ppm in test [4], in test [6] and in test [3] was at least 80% throughout.

In the case of `CO/N=C/c1cccc(CCCO/N=C(\C)c2cccc(C)n2)n1` [P.21], the inhibition at 200 ppm in test [4] was at least 80%.

For `CO/N=C(\C)c1cccc(CCCO/N=C(\C)c2cccc(C(OC)OC)n2)n1` [P.29], the inhibition at 200 ppm in test [4], in test [6] and in test [3] was at least 80% throughout.

For `CO/N=C(\C)c1cccc(CCCO/N=C(\C)c2cccc(-c3ccccc3)n2)n1` [P.33], the inhibition at 200 ppm in test [4], in test [6] and in test [3] was at least 80% throughout.

`CO/N=C(\C)c1cccc(CCCO/N=C(\C)c2ccc3ccccc3n2)n1` [P.34]: the inhibition at 200 ppm in test [4] and in test [3] was at least 80% in each case.

With `CO/N=C(\C)c1cccc(CCCO/N=C/c2cccc(C)n2)n1` [P.38], the inhibition at 200 ppm in test [4], in test [6], in test [3] and in test [5] was at least 80% throughout.

With `CO/N=C(\C)c1cccc(CCCO/N=C/c2cccc(Oc3ccccc3)n2)n1` [P.39], the inhibition at 200 ppm in test [4], in test [6] and in test [3] was at least 80% in each case.

As to `CO/N=C(\C)c1cccc(CCCO/N=C(\C)c2cc(C(C)(C)C)ccn2)n1` [P.45], the inhibition at 200 ppm in test [4], in test [6] and in test [3] was at least 80% each time.

Consider `CCOC(=O)c1cc(C)cc(/C(C)=N/OCCCc2cccc(/C(C)=N/OC)n2)n1` [P.47], for which the inhibition at 200 ppm in test [4], in test [6] and in test [3] was at least 80% each time.

In the case of `C=CCOc1ccc(C)nc1/C=N/OCCCc1cccc(/C(C)=N/OC)n1` [P.49], in test [6], the inhibition at 200 ppm is at least 80%.

In the case of `CO/N=C(\C)c1cccc(CCCO/N=C(\C)c2cccc(C#N)n2)n1` [P.50], the inhibition at 200 ppm in test [4], in test [6] and in test [3] was at least 80% in each case.

`CO/N=C(\C)c1cccc(CCCO/N=C2\CCCc3cnc(C)nc32)n1` [P.60, 2-Methyl-6,7-dihydro-5H-quinazolin-8-one O-[3-(6-(1-((E)-methoxyimino)-ethyl)-pyridin-2-yl)-propyl]-oxime]: in test [6], the inhibition at 200 ppm was at least 80%.

As for `CO/N=C(\C)c1cccc(CCCO/N=C2\CCCc3cnc(-c4cccc(C)n4)nc32)n1` [P.64], in test [4], the inhibition at 200 ppm was at least 80%.

In the case of `CO/N=C(\C)c1cccc(CCCO/N=C2\CCCc3cncnc32)n1` [P.65], in test [4], the inhibition at 200 ppm is at least 80%.

Turning to `CO/N=C(\C)c1cccc(CCCO/N=C(\C)c2nc(OC)cc(OC)n2)n1` [P.66], the inhibition at 200 ppm in test [4] and in test [6] was at least 80% in each case.

Turning to `CCOc1cc(OCC)nc(/C(C)=N/OCCCc2cccc(/C(C)=N/OC)n2)n1` [P.67], the inhibition at 200 ppm in test [4], in test [6] and in test [3] was at least 80% in each case.

As to `CO/N=C(\C)c1cccc(CCCO/N=C(\c2ccccc2)c2nc(OC)cc(OC)n2)n1` [P.68], the inhibition at 200 ppm in test [6] and in test [3] was at least 80% throughout.

On to `CO/N=C(\C)c1cccc(CCCO/N=C(\C)c2cc(C)c3ccccc3n2)n1` [P.71], for which the inhibition at 200 ppm in test [4] was at least 80%.

Take `CO/N=C(\C)c1cccc(CCCO/N=C(\C)c2cccc(CCCOCc3ccccc3)n2)n1` [P.75]: the inhibition at 200 ppm in test [4], in test [6] and in test [3] was at least 80% throughout.

Regarding `CO/N=C(\C)c1cccc(CCCO/N=C(\C)c2cccc(CCCO)n2)n1` [P.77], the inhibition at 200 ppm in test [4], in test [6] and in test [3] was at least 80% throughout.

Consider `CO/N=C(\C)c1cccc(CCCO/N=C(\C)c2cccc(C#CCO)n2)n1` [P.78], for which the inhibition at 200 ppm in test [6], in test [3] and in test [5] was at least 80% in each case.

Consider `CO/N=C(\C)c1cccc(CCCO/N=C(\C)c2cccc(C#CC(C)(C)C)n2)n1` [P.79], for which the inhibition at 200 ppm in test [4] and in test [6] was at least 80% each time.

Consider `CO/N=C(\C)c1cccc(CCCO/N=C2\CCCc3c2nc2cnccc2c3C)n1` [P.80], for which the inhibition at 200 ppm in test [4], in test [6], in test [3] and in test [5] was at least 80% in each case.

As for `CCCCc1c2c(nc3ccc(Cl)cc13)/C(=N/OCCCc1cccc(/C(C)=N/OC)n1)CCC2` [P.85], the inhibition at 200 ppm in test [4] and in test [3] was at least 80% in each case.

For the compound `CO/N=C(\C)c1cccc(CCCO/N=C2\COCc3c2nc2ccccc2c3C)n1` [P.89], the inhibition at 200 ppm in test [4], in test [6] and in test [3] was at least 80% each time.

On to `CO/N=C(\C)c1cccc(CCCO/N=C2\CCCc3c2nc2c(C)cccc2c3C)n1` [P.90], for which the inhibition at 200 ppm in test [4], in test [2], in test [6] and in test [3] was at least 80% in each case.

As to `CO/N=C(\C)c1cccc(CCCON=C(c2ccc(-n3cccc3)c(C)c2)c2ccccn2)n1` [P.107], the inhibition at 200 ppm in test [6] is at least 80%.

Consider `CO/N=C(\C)c1cccc(CCCON=C(CCN(C)C)c2cccc(Br)n2)n1` [P.108], for which the inhibition at 200 ppm in test [6] was at least 80%.
